Results as given in ChEMBL document CHEMBL3639081, “Azabicyclo compound and salt thereof” (2014).

Molecular target: Heat shock protein HSP 90-alpha (Homo sapiens, UniProt P07900)
Assay: AlphaScreen Competitive Assay: The HSP90-binding activity was measured by an AlphaScreen competitive assay system. The purified HSP90 solution was diluted with a binding buffer (50 mM Tris-HCl (pH 7.5), 150 mM NaCl, 0.1% Triton-X100, 1 mM DTT, 0.1% BSA) and added to a 384-well plate (No. 3673, Corning Incorporated) containing test substances. After reaction at room temperature for 2 hr, biotin-labeled geldanamycin was added to each reaction solution in an amount of 40 nM, followed by reaction for further 1 hr. Detection mix (20 mM HEPES-KOH (pH 7.5), 0.5% BSA, 0.04 mg/mL Nickel Chelate Acceptor beads, 0.04 mg/mL Streptavidin-coated Donor beads) (No. 6760619C, Perkin Elmer, Inc.) was added to each well in the same amount as that of the reaction solution. After reaction in a dark place at room temperature for 1 hr, the fluorescence intensity in each well was measured with a multilabel plate reader, EnVision (Perkin Elmer, Inc.).

IC50: 0.09 µM
SMILES: COc1cc(C(N)=O)ccc1-n1nc(C(C)C)c2c(-n3cnc(-c4cnn(C)c4)c3)ccnc21
